This is an account of results in patent publication US4264576A, “Contraceptive methods and compositions” (Eli Lilly and Company, priority 1980, dated 1981).

The subject of data set [1] is Dutch Belted virgin rabbits. Kind of data set: Antifertility effects in vivo by intrauterine administration. More on the design: species or system rabbit. As to conditions: 40-mg dimethylpolysiloxane rubber rod, 10% W/W. The procedure: Dutch Belted virgin rabbits, each weighing 3-4 pounds, are randomly selected and anesthetized with sodium pentobarbital (50 μg./ml.) administered by IV drip. The uterus of each animal is exposed and a 40-mg. sample in the shape of a rod (3 mm. in diameter) of dimethylpolysiloxane rubber (as prepared in Example 3) containing 10% W/W of sodium sulfopropyl n-dodecanoate is sutured into the right uterine horn at a random location in between the cervix and the utero-tubal junction. The left horn is left untreated to serve as control. The rubber rod is placed into the uterine horn by passing a curved needle through it and through the uterine wall pulling the rod into the uterine lumen. The entry is closed by suturing. Animals (blank) are similarly treated using unmedicated dimethylpolysiloxane rubber to serve as a second group of controls. The animals are given 300,000 units of Duracillin® per day (in four doses) and are allowed to recover for 14 days. Each animal is bred to a male of proven fertility and is immediately given a dose (IV) of appropoximately 100 units of human chorionic gonadotropin (HCG) to facilitate ovulation. Fourteen days after breeding, the animal are sacrificed by cervical dislocation and the uterine horns are examined for implanted embryos. The number of embryos per uterine horn are recorded.

In data set [2] the test system is virgin dutch belted female rabbit. Description: Antifertility effects in vivo by intravaginal administration. As to conditions: 1 ml of equal volumes Ky-jelly and 10 mg./ml. solution, before breeding, 6 animals. The procedure:
Equal volumes of Ky-jelly® and either Ca^++ free Ringer's solution or a 10 mg./ml. solution of the compound to be tested in Ca^++ free Ringer's solution are well mixed. One milliliter of this is placed into the vagina of a virgin dutch belted female rabbit using a syringe. The female is then immediately bred to a fertile buck. The female is injected I.V. with 100 units of human chorionic gonadotrophin to assure a good ovulation rate.
After approximately 14 days the females are sacrificed by cervical dislocation and the genital system examined for the number of embryos.

The test system of another data set is cumulus oophorus. Description: Removal of cumulus oophorus from ova by hyaluronidase, in vitro. Format: cell-based, rabbit. As to conditions: 10 μl of 10 mg./ml. compound solution in 1 ml calcium-free Ringer's solution, 37° C. On the procedure:
In the absence of sodium sulfopropyl dodecanoate, complete removal of the cumulus oophorus is observed.
Female rabbits are given 100 units of pregnant mares serum (PMS), IM, and 134 units of HCG, IV. After 13 hours the animals are sacrificed, and the ovaries are excised. The ovaries are submerged in calcium-free Ringer's solution containing 20% rabbit serum which had been heated to 55° C. for 20 minutes. Ova with cumulus intact are removed and placed in calcium-free Ringer's solution for incubation at 37° C. Hyaluronidase (10 μl.) of a 10 mg./ml. solution in calciumfree Ringer's solution is added to 20 ova in 1 ml. of the incubation medium. To 10 ova in the same medium is added 10 μl. of a solution of sodium sulfopropyl n-dodecanoate (10 mg./ml.) in calcium-free Ringer's solution. To 10 other ova in the same media is added 10 μl. of calcium-free Ringer's solution as control. The mixtures are incubated at 37° C., and the cumulus oophorus is examined at 15 minute intervals with an American Optical stereomicroscope. In the absence of sodium sulfopropyl n-dodecanoate, the cumulus oophorus is completely removed.

Data set [3] in a line: Drug release rate from dimethylpolysiloxane rubber compositions in calcium-free Ringers solution. As to conditions: footnote of Table II; Calc. on basis of hyaluronidase inhibition. Format: physicochemical.
Method: An appropriate sample of a dimethylpolysiloxane rubber composition in which is incorporated the test compound is placed in a suitable amount of calcium-free Ringers solution, and the sample and solution are incubated together at 37° C. for a period of time (e.g. 24 hours). […] The equivalent amount of test compound in the removed solution is calculated from standard inhibition curves in which hyaluronidase inhibition is plotted against concentration of the test compound. The calculated result are expressed as micrograms of test compound released per day.
The above test may be repeated for an extended period of time, for example, for 1 day to 360 days, or more, by adding fresh calcium-free Ringer's solution after each removal of the solution for assay.
The sample weight was 4 mg. and the amount of added solution was 1 ml.
The target in another data set is acrosin (Homo sapiens, UniProt P10323). Description: Acrosin inhibition in vitro. Format: biochemical. As to conditions: statement in words.
Chain of acrosin (P10323 20-421, species assumed): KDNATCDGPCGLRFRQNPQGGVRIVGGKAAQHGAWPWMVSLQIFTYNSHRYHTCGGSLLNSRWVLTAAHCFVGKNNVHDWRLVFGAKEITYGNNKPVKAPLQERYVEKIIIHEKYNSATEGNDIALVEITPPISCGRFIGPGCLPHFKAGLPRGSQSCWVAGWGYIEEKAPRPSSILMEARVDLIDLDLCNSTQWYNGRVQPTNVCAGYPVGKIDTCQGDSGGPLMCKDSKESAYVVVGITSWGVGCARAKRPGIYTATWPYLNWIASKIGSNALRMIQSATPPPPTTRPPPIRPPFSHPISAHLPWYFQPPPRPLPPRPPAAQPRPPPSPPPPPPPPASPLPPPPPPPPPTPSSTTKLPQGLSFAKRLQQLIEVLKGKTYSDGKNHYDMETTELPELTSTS

Take `CCCCCCCCCCCC(=O)OCCCS(=O)(=O)O.[Na]` [CH3 (CH2)10, n=3, sodium sulfopropyl dodecanoate]: the “Total No. of embryos” value in data set [1] (in right uterine horn, 11 horns, 14 days after breeding) is given as 1. In data set [1] (in uterine horn, p < .001 compared to untreated and to blank), the “[drawing 14] (number of embryos per uterine horn)” value is given as 0.09. Further, the “Avg. No. of Embryos per animal” value in data set [2] was found to be 0. For the same compound, in data set [2] (approximately 14 days), the No. of embryos was 0. Moreover, the “state of the cumulus oophorus of rabbit ova incubated with hyaluronidase” value is reported as “the cumulus oophorus remain substantially intact” in the data set on cumulus oophorus and “the cumulus remains substantially intact” in the data set on cumulus oophorus (listed as sodium sulfopropyl n-dodecanoate). For the same compound, in data set [3], the “Release rate from dimethylpolysiloxane, in vitro” value is 1 to 3 mg/day.

For `CCCC/C=C\CCCCCCCC(=O)OCCCS(=O)(=O)O.[Na]` [cis- CH3 (CH2)3 CHCH(CH2)7, n=3, sodium sulfopropyl myristoleate], the “anti-acrosin activity (inhibition in vitro of the action of acrosin)” value on acrosin is on record as “anti-acrosin activity”.

`CCCC/C=C/CCCCCCCC(=O)OCCCS(=O)(=O)O` [trans- CH3 (CH2)3 CHCH(CH2) 7, n=3, sodium sulfopropyl myristelaidate]: the “anti-acrosin activity (inhibition in vitro of the action of acrosin)” value on acrosin is on record as “anti-acrosin activity”.

Take “sodium sulfopropyl 15-methylheptadecanoate”: the “anti-acrosin activity (inhibition in vitro of the action of acrosin)” value on acrosin is recorded as “anti-acrosin activity”.

As to “sodium sulfopropyl 16-methylheptadecanoate”, at acrosin, the “anti-acrosin activity (inhibition in vitro of the action of acrosin)” value is on record as “anti-acrosin activity”.
